Test system: virus with the mutations M41L, K07R, T215F, K219Q
Assay: Determination system for phenotypic resistances to antiretroviral drugs (renilla activity, recombinant viral clones)
Format: cell-based, HIV
Details: K219Q versus wild type virus, FIG. 2b
Method: It can be schematically seen in FIGS. 1a and 1b how the viral particles are produced in culture supernatants during the 48 hours following transfection of the recombinat virus carrying viral sequences amplified from patients's plasma in 293T cells. The 293T cell line was obtained from the Deposit of the ATCC. The progeny of recombinant viruses are collected 48 hours after transfection in and used to infect the SSPA-B7 clone as target. This cellular clone was obtained by the applicant from the MT-2 cell line by means of transfection of an expression vector of the gene CCR5 provided with a resistance marker for Genetycin. Expression of both major viral coreceptors (CCR5 as a transgene and CXCR4 naturally) allows the infection with viral carrying different envelopes that use CCR5, CXCR4 receptors or both. […] The capacity of the viruses to complete a replication cycle is quantified by measuring the luciferase activity in the target cells. When phenotypic resistance to protease inhibitors is analyzed, the drug should be added to the producer cell (293-T) because viral morphogenesis driven by the protease is generated in this step of the viral cycle. In contrast, phenotypic resistance towards inhibitors of reverse transcriptase and of entry is measured by adding the drugs to the infected cells because such processes (entry and retrotranscription) take place in the target cell. […]

## Cc1cn([C@H]2C[C@H](N=[N+]=[N-])[C@@H](CO)O2)c(=O)[nH]c1=O [AZT]
  Fold (AZT resistance): 36
